Structures are written as SMILES.

Broadly, the IC50 is the concentration needed to halve the response being measured. Low readings indicate greater potency, high ones weaker potency.

Assay [1] deals with T1, human TLR2 (Homo sapiens (Human), UniProt O60603). Kind of assay: HEK-Blue hTLR2 antagonism assay (SEAP reporter), agonist Pam3CSK4. To be noted: HEK-Blue hTLR2 cells; Pam3CSK4 (TLR1/2 agonist) at approx. 3×EC50; 18 h; 8-point dilutions. Type of assay: cell-based. The protocol:
(§1) Synthetic diacylated lipoprotein (Pam2CSK4, TLR2/6 agonist) and synthetic triacylated lipoprotein (Pam3CSK4, TLR1/2 agonist) were obtained from InvivoGen and were dissolved in endotoxin-free water to a concentration 1 mg/mL, vortexed until complete solubilization, and stored in aliquots at −20° C. Prior to addition to cells, an aliquot of the dissolved ligand was vortexed shortly and then was diluted in medium to 25 ng/mL Pam2CSK4 or 1000 ng/mL Pam3CSK4.
(§2) Test compounds were solubilized fresh to 10-20 mM stocks in DMSO and sonicated for 5-10 minutes in a water bath sonicator. Serial dilutions were prepared in DMSO, and then diluted in medium. The final concentration of DMSO used in the assay was 1%.
(§3) HEK-Blue hTLR2 reporter cells (InvivoGen) are HEK-293 cells stably expressing both the human TLR2 gene and a secreted embryonic alkaline phosphatase (SEAP) reporter construct downstream of NFκB promotor sites. HEK-Blue hTLR2 reporters were cultured according to manufacturer's protocol using Dulbecco's Modified Eagle Medium (DMEM; Gibco) containing 1× GlutaMax (Gibco), 10% heat-inactivated Fetal Bovine Serum (Gibco), Pen-Strep (50 U/mL penicillin, 50 μg/mL streptomycin, Gibco), 100 μg/mL Normocin (InvivoGen), and the selective antibiotic, lx HEK-Blue Selection (InvivoGen). Quanti-Blue reagent (InvivoGen) for detection and quantification of secreted alkaline phosphatase was dissolved in 100 mL of endotoxin-free water, warmed to 37° C. for 30 minutes and then filtered using a 0.2 μm membrane.
(§4) On day 1, 50 μL of each test compound dilution in duplicates or a vehicle control was added to each well of a 96-well plate followed by addition of 150 μL of HEK-Blue hTLR2 cell suspension (1×10^5 cells/well) and incubated at 37° C./5% CO2 for 2 h. Next, 50 μL of an approximate 3×EC50 concentration of each agonist (Pam2CSK4 or Pam3CSK4) was added to the wells containing test compounds or the vehicle control. The plates were then incubated at 37° C./5% CO2 for 18 h. For each assay run, non-treated HEK-Blue hTLR2 cells were treated with serial dilutions of agonists to determine EC50 values for the respective run.
(§5) On day 2, secreted alkaline phosphatase (SEAP) activity was detected in cell culture supernatants. In brief, 20 μL was collected from each well and transferred to a 96-well plate. Next, 200 μL of Quanti-Blue detection reagent was added to each well. Plates were incubated at room temperature for 15 min and SEAP activity was assessed by spectrophotometer OD reading at 655 nm. […] IC50 values were calculated based on 8-point dilutions for each compound.

For assay [2], the target named is T1, human TLR2. Kind of assay: HEK-Blue hTLR2 antagonism assay (SEAP reporter), agonist Pam2CSK4. The class given is cell-based. Conditions: HEK-Blue hTLR2 cells; Pam2CSK4 (TLR2/6 agonist) at approx. 3×EC50; 18 h; 8-point dilutions. As to the method:
as §1, §2, §3, §4, §5

T1 sequence (O60603 21-784): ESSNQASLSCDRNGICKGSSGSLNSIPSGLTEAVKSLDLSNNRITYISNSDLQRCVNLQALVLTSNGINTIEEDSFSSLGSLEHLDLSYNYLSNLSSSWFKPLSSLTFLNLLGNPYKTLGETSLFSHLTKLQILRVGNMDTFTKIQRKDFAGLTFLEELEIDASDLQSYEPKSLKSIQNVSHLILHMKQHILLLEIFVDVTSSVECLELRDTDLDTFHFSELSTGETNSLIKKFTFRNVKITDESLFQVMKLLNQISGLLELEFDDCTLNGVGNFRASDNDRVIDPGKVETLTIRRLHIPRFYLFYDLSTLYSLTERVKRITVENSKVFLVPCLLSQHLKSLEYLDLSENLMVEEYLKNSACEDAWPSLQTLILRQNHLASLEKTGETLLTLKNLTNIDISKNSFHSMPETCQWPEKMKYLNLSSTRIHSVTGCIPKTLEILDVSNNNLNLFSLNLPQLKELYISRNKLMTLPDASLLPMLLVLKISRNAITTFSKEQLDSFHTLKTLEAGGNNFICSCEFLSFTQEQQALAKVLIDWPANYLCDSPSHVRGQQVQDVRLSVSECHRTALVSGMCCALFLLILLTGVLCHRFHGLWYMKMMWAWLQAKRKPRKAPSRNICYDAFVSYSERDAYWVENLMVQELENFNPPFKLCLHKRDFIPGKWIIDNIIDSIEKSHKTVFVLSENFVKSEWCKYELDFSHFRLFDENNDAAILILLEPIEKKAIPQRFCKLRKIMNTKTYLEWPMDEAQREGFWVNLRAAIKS

With `O=Cc1cc(C(=O)N2CCO[C@@H](c3ccc(N4CCCC4)cc3)C2)cc(F)c1O` (single isomer, unassigned) [Compound 148], the concentration for half-maximal inhibition (IC50) on human TLR2 [1] was 1.88 µM; on human TLR2 [2] it was 4.99 µM.

As for `O=Cc1cc(-c2nc(-c3ccc(N4CCCC4)cc3)ns2)cc(F)c1OC(=O)OC1CCOC1` (stereo not drawn) [Compound 162, 2-fluoro-6-formyl-4-(3-(4-(pyrrolidin-1-yl)phenyl)-1,2,4-thiadiazol-5-yl)phenyl tetrahydrofuran-3-yl carbonate], the IC50 at human TLR2 [1] was determined as 4.3 µM; at human TLR2 [2], 11.5 µM.

On to `O=Cc1cc(C(=O)Nc2coc(-c3ccccc3)n2)cc(F)c1O` [Compound 15, 3-fluoro-5-formyl-4-hydroxy-N-(2-phenyloxazol-4-yl)benzamide], for which the IC50 at human TLR2 [1] was 0.9 µM; on human TLR2 [2] it was 4.1 µM.

`O=Cc1cc(C(=O)NNc2cccc(Br)c2)cc(F)c1O` [Compound 160, N′-(3-bromophenyl)-3-fluoro-5-formyl-4-hydroxybenzohydrazide]: the IC50 on human TLR2 [1] was found to be 26.5 µM; on human TLR2 [2], 38.4 µM.

On to `O=Cc1cc(-c2nc(-c3ccc(N4CCCC4)nc3)ns2)cc(F)c1O` [Compound 130, 3-fluoro-2-hydroxy-5-(3-(6-(pyrrolidin-1-yl)pyridin-3-yl)-1,2,4-thiadiazol-5-yl)benzaldehyde], for which the IC50 was 0.8 µM on human TLR2 [1] and 1.3 µM at human TLR2 [2].

On to `COCCOCC(=O)Oc1c(F)cc(-c2nc(-c3ccc(N4CCCC4)cc3)ns2)cc1C=O` [Compound 176, 2-fluoro-6-formyl-4-(3-(4-(pyrrolidin-1-yl)phenyl)-1,2,4-thiadiazol-5-yl)phenyl 2-(2-methoxyethoxy)acetate], for which the IC50 at human TLR2 [1] was determined as 0.6 µM; at human TLR2 [2] it was 2 µM.

Take `O=Cc1cc(C(=O)Nc2nc(-c3ccccc3)cs2)cc(F)c1O` [Compound 6, 3-fluoro-5-formyl-4-hydroxy-N-(4-phenylthiazol-2-yl)benzamide]: the half-inhibitory concentration (IC50) at human TLR2 [1] is 3.3 µM; at human TLR2 [2] it was 5.1 µM.

Consider `O=Cc1cc(C(=O)N2CC[C@H](c3ccc(N4CCCC4)cc3)C2)cc(F)c1O` (single isomer, unassigned) [Compound 156], for which the IC50 came out at 3.2 µM at human TLR2 [1] and 3.7 µM at human TLR2 [2].

With `O=Cc1cc(C(=O)NCCCc2ccc(N3CCCC3)cc2)cc(F)c1O` [Compound 144, 3-fluoro-5-formyl-4-hydroxy-N-(3-(4-(pyrrolidin-1-yl)phenyl)propyl)benzamide], the concentration for half-maximal inhibition (IC50) stood at 5.3 µM on human TLR2 [1] and 9.3 µM on human TLR2 [2].

Consider `O=Cc1cc(C(=O)N2CCN(c3ccc(N4CCCC4)nc3)CC2)cc(F)c1O` [Compound 140, 3-fluoro-2-hydroxy-5-(4-(6-(pyrrolidin-1-yl)pyridin-3-yl)piperazine-1-carbonyl)benzaldehyde], for which the values for the IC50 on human TLR2 [1] and at human TLR2 [2] were 7.2 µM and 14 µM, respectively.

Turning to `O=Cc1cc(-c2nc(-c3ccc(N4CC(F)(F)C4)cc3)ns2)cc(F)c1O` [Compound 169, 5-(3-(4-(3,3-difluoroazetidin-1-yl)phenyl)-1,2,4-thiadiazol-5-yl)-3-fluoro-2-hydroxybenzaldehyde], the half-maximal inhibitory concentration (IC50) stood at 1.3 µM at human TLR2 [1] and 2.5 µM at human TLR2 [2].

Turning to `O=Cc1cc(-c2nc(-c3ccc(N4CCCC4)cc3)ns2)cc(F)c1OC(=O)N1CCOCC1` [Compound 174, 2-fluoro-6-formyl-4-(3-(4-(pyrrolidin-1-yl)phenyl)-1,2,4-thiadiazol-5-yl)phenyl morpholine-4-carboxylate], the results for the IC50 on human TLR2 [1] and at human TLR2 [2] were 0.6 µM and 1.5 µM, respectively.

As for `COc1ccc(C2CN(C(=O)c3cc(F)c(O)c(C=O)c3)CCS2)cc1` (racemic) [Compound 152, rac-3-fluoro-2-hydroxy-5-(2-(4-methoxyphenyl)thiomorpholine-4-carbonyl)benzaldehyde], the 50% inhibitory concentration (IC50) on human TLR2 [1] is 5.7 µM; on human TLR2 [2], 14.2 µM.

Turning to `O=Cc1cc(-c2nc(-c3ccc(N4CCCC4)cc3)ns2)cc(F)c1OC(=O)N1CCCC1` [Compound 172, 2-fluoro-6-formyl-4-(3-(4-(pyrrolidin-1-yl)phenyl)-1,2,4-thiadiazol-5-yl)phenyl pyrrolidine-1-carboxylate], the values for the IC50 on human TLR2 [1] and on human TLR2 [2] were 0.5 µM and 1 µM, respectively.

For the compound `O=Cc1cc(C(=O)N2CCC(c3ccc(N4CCCC4)cc3)C2)cc(F)c1O` (stereo not drawn) [Compound 82, 3-fluoro-2-hydroxy-5-(3-(4-(pyrrolidin-1-yl)phenyl)pyrrolidine-1-carbonyl)benzaldehyde], the IC50 at human TLR2 [1] is 3.5 µM; at human TLR2 [2] it was 8.4 µM.

As to `O=Cc1cc(C(=O)N2CCCC2c2ccc(N3CCCC3)cc2)cc(F)c1O` (racemic) [Compound 155, rac-3-fluoro-2-hydroxy-5-(2-(4-(pyrrolidin-1-yl)phenyl)pyrrolidine-1-carbonyl)benzaldehyde], the results for the IC50 at human TLR2 [1] and on human TLR2 [2] were 9.62 µM and 15.7 µM, respectively.

For the compound `O=Cc1cc(C(=O)N2CC(c3ccc(N4CCCC4)cc3)C2)cc(F)c1O` [Compound 84, 3-fluoro-2-hydroxy-5-(3-(4-(pyrrolidin-1-yl)phenyl)azetidine-1-carbonyl)benzaldehyde], the half-maximal inhibitory concentration (IC50) was 3.8 µM at human TLR2 [1] and 6.2 µM on human TLR2 [2].

For `CN1C(=O)Oc2c(F)cc(-c3nc(-c4ccc(N5CCCC5)cc4)ns3)cc2C1O` (stereo not drawn) [Compound 178, 8-fluoro-4-hydroxy-3-methyl-6-(3-(4-(pyrrolidin-1-yl)phenyl)-1,2,4-thiadiazol-5-yl)-3,4-dihydro-2H-benzo[e][1,3]oxazin-2-one], the concentration for half-maximal inhibition (IC50) on human TLR2 [1] came out at 0.43 µM; at human TLR2 [2] it was 1.2 µM.

Turning to `O=Cc1cc(C(=O)Nc2ncc(N3CCN(C4CC4)CC3)s2)cc(F)c1O` [Compound 5, N-(5-(4-cyclopropylpiperazin-1-yl)thiazol-2-yl)-3-fluoro-5-formyl-4-hydroxybenzamide], the half-inhibitory concentration (IC50) on human TLR2 [1] is 2.7 µM; at human TLR2 [2] it was 5.3 µM.

With `O=Cc1cc(COC(=O)Nc2cccc(N3CCCC3)c2)cc(F)c1O` [Compound 159, 3-fluoro-5-formyl-4-hydroxybenzyl (3-(pyrrolidin-1-yl)phenyl)carbamate], the half-maximal inhibitory concentration (IC50) is 4.39 µM on human TLR2 [1] and 9.29 µM on human TLR2 [2].

Regarding `CN1CCN(C(=O)Oc2c(F)cc(-c3nc(-c4ccc(N5CCCC5)cc4)ns3)cc2C=O)CC1` [Compound 175, 2-fluoro-6-formyl-4-(3-(4-(pyrrolidin-1-yl)phenyl)-1,2,4-thiadiazol-5-yl)phenyl 4-methylpiperazine-1-carboxylate], the IC50 on human TLR2 [1] stood at 0.3 µM; at human TLR2 [2], 1.2 µM.

In the case of `CN(C(=O)c1cc(F)c(O)c(C=O)c1)C12CC(c3ccccc3)(C1)C2` [Compound 158, 3-fluoro-5-formyl-4-hydroxy-N-methyl-N-(3-phenylbicyclo[1.1.1]pentan-1-yl)benzamide], the 50% inhibitory concentration (IC50) was 2.25 µM at human TLR2 [1] and 5.9 µM at human TLR2 [2].

Consider `COc1cc(-c2cnn(-c3ccc(C(F)(F)F)cc3)c2)cc(C=O)c1O` [Compound 128, 2-hydroxy-3-methoxy-5-(1-(4-(trifluoromethyl)phenyl)-1H-pyrazol-4-yl)benzaldehyde], for which the values for the IC50 at human TLR2 [1] and on human TLR2 [2] were 0.8 µM and 0.7 µM, respectively.

With `O=Cc1cc(C(=O)Nc2nc(-c3ccccc3)ns2)cc(F)c1O` [Compound 121, 3-fluoro-5-formyl-4-hydroxy-N-(3-phenyl-1,2,4-thiadiazol-5-yl)benzamide], the 50% inhibitory concentration (IC50) at human TLR2 [1] was 7.9 µM; on human TLR2 [2], 15.9 µM.

Values taken from US20240043395A1, “COMPOUNDS AND COMPOSITIONS AS MODULATORS OF TLR SIGNALING” (Neuropore Therapies, Inc., priority 2020, published 2024).
